Two compounds from BindingDB's records for doi:10.1124/jpet.103.051797 (Institut De Recherches Servier, 2003) can be followed below.

For orientation: pKi means the Ki on a negative log10 scale, so that one unit is a factor of ten. A low value points to a large Ki.

Test [1] has as its target T1, 5-hydroxytryptamine receptor 2C (Sus scrofa, UniProt K7GSR7).
T1 sequence (K7GSR7 whole entry): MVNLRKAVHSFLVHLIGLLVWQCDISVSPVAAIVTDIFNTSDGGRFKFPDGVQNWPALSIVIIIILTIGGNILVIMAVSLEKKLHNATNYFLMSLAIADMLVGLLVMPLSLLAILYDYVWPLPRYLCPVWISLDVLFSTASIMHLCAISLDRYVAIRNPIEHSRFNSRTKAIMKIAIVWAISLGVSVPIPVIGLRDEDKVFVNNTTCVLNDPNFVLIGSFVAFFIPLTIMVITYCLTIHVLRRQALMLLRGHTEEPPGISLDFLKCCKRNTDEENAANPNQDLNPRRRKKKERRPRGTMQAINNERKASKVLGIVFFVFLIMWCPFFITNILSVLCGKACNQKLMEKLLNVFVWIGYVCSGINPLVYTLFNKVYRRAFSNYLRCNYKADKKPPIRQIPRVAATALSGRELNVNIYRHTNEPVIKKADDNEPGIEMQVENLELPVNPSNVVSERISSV

The target of test [2] is 5-hydroxytryptamine receptor 2A (Rattus norvegicus, UniProt P14842).
5-hydroxytryptamine receptor 2A, sequence (P14842 whole entry): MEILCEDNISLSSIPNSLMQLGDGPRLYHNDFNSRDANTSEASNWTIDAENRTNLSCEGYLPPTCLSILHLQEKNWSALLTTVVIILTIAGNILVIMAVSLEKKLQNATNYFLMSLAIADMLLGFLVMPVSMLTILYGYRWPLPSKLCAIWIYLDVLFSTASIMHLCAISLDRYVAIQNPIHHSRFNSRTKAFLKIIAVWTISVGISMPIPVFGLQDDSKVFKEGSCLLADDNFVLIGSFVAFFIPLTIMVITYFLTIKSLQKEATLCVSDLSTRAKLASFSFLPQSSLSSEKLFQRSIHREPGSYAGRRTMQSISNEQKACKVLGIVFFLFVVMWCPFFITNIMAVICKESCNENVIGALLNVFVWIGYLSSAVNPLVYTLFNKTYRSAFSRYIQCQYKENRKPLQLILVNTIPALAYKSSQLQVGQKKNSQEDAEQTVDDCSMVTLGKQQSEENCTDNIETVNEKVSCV
Test [3] has as its target 5-hydroxytryptamine receptor 2B (Homo sapiens, UniProt P41595).

pKi: −log10 of the molar value.

5-hydroxytryptamine receptor 2B, sequence (P41595 whole entry): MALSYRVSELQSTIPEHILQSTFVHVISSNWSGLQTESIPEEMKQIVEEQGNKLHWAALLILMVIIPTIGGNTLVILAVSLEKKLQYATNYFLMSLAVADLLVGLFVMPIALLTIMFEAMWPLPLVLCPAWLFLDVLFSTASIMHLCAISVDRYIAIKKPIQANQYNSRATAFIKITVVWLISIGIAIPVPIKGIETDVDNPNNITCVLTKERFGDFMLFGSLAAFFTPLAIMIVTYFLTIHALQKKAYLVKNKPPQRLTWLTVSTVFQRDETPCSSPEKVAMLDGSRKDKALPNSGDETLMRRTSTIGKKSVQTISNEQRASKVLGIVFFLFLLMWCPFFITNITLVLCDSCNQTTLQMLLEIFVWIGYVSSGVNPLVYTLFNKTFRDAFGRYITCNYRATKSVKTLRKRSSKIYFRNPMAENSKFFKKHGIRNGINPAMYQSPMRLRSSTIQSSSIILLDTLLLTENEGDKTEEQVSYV

With `COc1ccc2[nH]cc(CCNC(C)=O)c2c1`, the negative logarithm of the Ki (pKi) in test [1] and in test [2] was < 5.00 each time.
Take `COc1ccc2cccc(CCNC(C)=O)c2c1` [S 20098]: the pKi in test [3] was 6.59; in test [1], 6.39; in test [2] it was < 5.00.
